Experiments:
[1] = test system: HAdV5-GFP; experiment: Plaque assay, HAdV5-GFP in 293β5 cells; format: cell-based; settings: read-out: Percentage of plaque formation inhibition, HAdV5-GFP, 10 μM, 293β5 cell line
Experimental: 1.5. Plaque assay. For low MOI infections, active compounds were further evaluated in a plaque assay. 293β5 cells were seeded in 6-well plates at 4×10^5 cells per well in duplicate for each condition. When cells reached 80-90% confluency, they were infected with HAdV5-GFP or HAdV16-GFP (0.06 vp/cell) and rocked for 2 h at 37° C. The inoculum was removed and the cells were washed once with PBS. The cells were then carefully overlaid with 4 ml/well of equal parts of 1.6% […] Difco Agar Noble (Becton, Dickinson & Co, Sparks, MD) and 2× EMEM (BioWhittaker) supplemented with 2x penicillin/streptomycin, 2× L-glutamine and 10% FBS. The mixture also contained compound in concentrations ranging from 5 to 1 μM. Following incubation for 7 days at 37° C., plates were scanned with a Typhoon 9410 imager (GE Healthcare Life Sciences), and plaques were quantified with ImageJ.43
For the plaque assay 293β5 cells were infected with HAdV5-GFP (in the presence of compound at 10 μM) (Table 2). From this generation of compounds, our primary screening identified 4 compounds (12, 13, 22 and 25) that inhibited HAdV5-GFP plaque formation >90% compared to a control with the same volume of DMSO.

[2] = Cytotoxicity assay (alamarBlue cell viability); format: cell-based, Human; settings: human, A549 cells
Experimental: 1.4. Cytotoxicity assay. The cytotoxicity of the compounds was measured using the AlarmBlue cell viability assay (Invitrogen) according to the manufacturer's instructions. Actively dividing A549 cells were incubated with compounds for 48 h. After the incubation the alamarBlue reagent was added to the cells ( 1/10th alamarBlue reagent in culture medium) for an extra 4 h. The 50% cell cytotoxic concentration (CC50) of the molecules was calculated according to Cheng et al.42 The selectivity index (SI) was evaluated as the ratio of CC50 to IC50, where the IC50 is defined as the concentration of compound that inhibits HAdV infection by 50%.

Structure (SMILES): CC1CN(C(=O)OC(C)(C)C)CCN1C(=O)Nc1cc(C(F)(F)F)ccc1Cl (centres unmarked) [Compound 30, 4-tert-Butoxycarbonyl-1-[(2-chloro-5-trifluoromethylphenyl)aminocarbonyl]-2-methylpiperazine]
- inhibition at 10 µM [1]: 91 to 100%
- CC50 at 48 h ([2]; 48 h): 63.5 ± 8.22 µM
- melting point: 98 to 100 °C

Structure (SMILES): CC1CN(C(=O)c2ccccc2)CCN1C(=O)c1ccc([N+](=O)[O-])cc1 (centres unmarked) [Compound 20, 4-Benzoyl-2-methyl-1-(4-nitrobenzoyl)piperazine]
- inhibition at 10 µM [1]: 0%
- melting point: 103 to 105 °C

Structure (SMILES): O=C(c1cc2ccccc2o1)N1CCN(C(=O)Nc2ccc(F)cc2)C(c2ccccc2)C1 (centres unmarked) [Compound 62, 4-(Benzofuran-2-carbonyl)-1-[(4-fluorophenyl)aminocarbonyl]-2-phenylpiperazine]
- inhibition at 10 µM [1]: 98.81 ± 0.15%
- CC50 at 48 h ([2]; 48 h): 12.5 ± 0.79 µM
- melting point: 122 to 124 °C

Structure (SMILES): CC1CN(C(=O)OC(C)(C)C)CCN1C(=O)c1ccc([N+](=O)[O-])cc1 (centres unmarked) [Compound 10, 4-tert-Butoxycarbonyl-2-methyl-1-(4-nitrobenzoyl)piperazine]
- inhibition at 10 µM [1]: 33.6 ± 2.17%
- melting point: 115 to 117 °C

Structure (SMILES): COc1ccc(C(=O)N2CCN(C(=O)C(C)(C)C)CC2C)cc1 (centres unmarked) [Compound 16, 1-(4-Methoxybenzoyl)-2-methyl-4-pivaloylpiperazine]
- inhibition at 10 µM [1]: 0%
- melting point: 96 to 97 °C

Structure (SMILES): CC1CN(C(=O)OC(C)(C)C)CCN1C(=O)Nc1ccc(Cl)c(C(F)(F)F)c1 (centres unmarked) [Compound 31, 4-tert-Butoxycarbonyl-1-[(4-chloro-3-trifluoromethylphenyl)aminocarbonyl]-2-methylpiperazine]
- inhibition at 10 µM [1]: 91 to 100%
- CC50 at 48 h ([2]; 48 h): 20.8 ± 0.64 µM
- melting point: 157 to 159 °C

Structure (SMILES): CC1CN(C(=O)OC(C)(C)C)CCN1C(=O)Nc1ccccc1[N+](=O)[O-] (centres unmarked) [Compound 29, 4-tert-Butoxycarbonyl-2-methyl-1-[(2-nitrophenyl)aminocarbonyl]piperazine]
- inhibition at 10 µM [1]: 50 ± 2.75%
- melting point: 199 to 201 °C

Structure (SMILES): CC1CN(C(=O)c2cc3ccccc3o2)CCN1C(=O)Nc1ccc(F)cc1 (centres unmarked) [Compound 35, 4-(Benzofuran-2-carbonyl)-1-[(4-fluorophenyl)aminocarbonyl]-2-methylpiperazine]
- inhibition at 10 µM [1]: 91 to 100%
- CC50 at 48 h [2]: > 200 µM
- CC50 at 48 h ([2]; 48 h): 221 ± 29 µM
- melting point: 93 to 95 °C

Structure (SMILES): O=C(c1cc2ccccc2o1)N1CCN(C(=O)Nc2ccc(C(F)(F)F)cc2)C(c2ccccc2)C1 (centres unmarked) [Compound 61, 4-(Benzofuran-2-carbonyl)-2-phenyl-1-[(4-trifluoromethylphenyl)aminocarbonyl]piperazine]
- inhibition at 10 µM [1]: 100%
- CC50 at 48 h ([2]; 48 h): 70.7 ± 21.4 µM
- melting point: 134 to 136 °C

Structure (SMILES): COc1ccc(NC(=O)N2CCN(C(=O)C(C)(C)C)CC2c2ccccc2)cc1 (centres unmarked) [Compound 58, 1-[(4-Methoxyphenyl)aminocarbonyl]-2-phenyl-4-pivaloylpiperazine]
- inhibition at 10 µM [1]: 70.1 ± 2.7%
- CC50 at 48 h ([2]; 48 h): 199 ± 33.6 µM
- melting point: 62 to 65 °C

Structure (SMILES): CC1CN(C(=O)c2cc3ccccc3o2)CCN1C(=O)Nc1ccccc1F (centres unmarked) [Compound 37, 4-(Benzofuran-2-carbonyl)-1-[(2-fluorophenyl)aminocarbonyl]-2-methylpiperazine]
- inhibition at 10 µM [1]: 50.9 ± 4.13%
- melting point: 127 to 129 °C

Structure (SMILES): CC1CN(C(=O)c2cc3ccccc3o2)CCN1C(=O)Nc1ccc(F)cc1F (centres unmarked) [Compound 39, 4-(Benzofuran-2-carbonyl)-1-[(2,4-difluorophenyl)aminocarbonyl]-2-methylpiperazine]
- inhibition at 10 µM [1]: 34.2 ± 13.6%
- melting point: 163 to 165 °C

Structure (SMILES): CC(C)(C)C(=O)N1CCN(C(=O)Nc2ccc(C#N)cc2)C(c2ccccc2)C1 (centres unmarked) [Compound 57, 1-[(4-Cyanophenyl)aminocarbonyl]-2-phenyl-4-pivaloylpiperazine]
- inhibition at 10 µM [1]: 84 ± 6.75%
- CC50 at 48 h ([2]; 48 h): 147 ± 38 µM
- melting point: 151 to 153 °C

Structure (SMILES): COc1ccc(C(=O)N2CCN(C(=O)OC(C)(C)C)CC2C)cc1 (centres unmarked) [Compound 11, 4-tert-Butoxycarbonyl-1-(4-methoxybenzoyl)-2-methylpiperazine]
- inhibition at 10 µM [1]: 33.8 ± 4.02%
- melting point: 84 to 87 °C

Structure (SMILES): CC1CN(C(=O)c2cc3ccccc3o2)CCN1C(=O)Nc1ccc(Cl)cc1 (centres unmarked) [Compound 32, 4-(Benzofuran-2-carbonyl)-1-[(4-chlorophenyl)aminocarbonyl]-2-methylpiperazine]
- inhibition at 10 µM [1]: 6.69 ± 11.1%
- CC50 at 48 h ([2]; 48 h): 144 ± 20.8 µM

Structure (SMILES): CC1CN(C(=O)c2cc3ccccc3o2)CCN1C(=O)Nc1ccccc1[N+](=O)[O-] (centres unmarked) [Compound 36, 4-(Benzofuran-2-carbonyl)-2-methyl-1-[(2-nitrophenyl)aminocarbonyl]piperazine]
- inhibition at 10 µM [1]: 91 to 100%
- CC50 at 48 h [2]: > 200 µM
- CC50 at 48 h ([2]; 48 h): 203 ± 4.09 µM

Structure (SMILES): CC(C)(C)OC(=O)N1CCN(C(=O)Nc2cc(C(F)(F)F)ccc2Cl)C(c2ccccc2)C1 (centres unmarked) [Compound 52, 4-tert-Butoxycarbonyl-1-[(2-chloro-5-trifluoromethylphenyl)aminocarbonyl]-2-phenylpiperazine]
- inhibition at 10 µM [1]: 100%
- CC50 at 48 h ([2]; 48 h): 93.36 ± 0.73 µM

Structure (SMILES): COc1ccc(NC(=O)N2CCN(C(=O)OC(C)(C)C)CC2c2ccccc2)cc1 (centres unmarked) [Compound 54, 4-tert-Butoxycarbonyl-1-[(4-methoxyphenyl)aminocarbonyl]-2-phenylpiperazine]
- inhibition at 10 µM [1]: 78.9 ± 1.57%
- CC50 at 48 h ([2]; 48 h): 133 ± 58.8 µM

Structure (SMILES): CC1CN(C(=O)OC(C)(C)C)CCN1C(=S)Nc1ccc([N+](=O)[O-])cc1 (centres unmarked) [Compound 12, 4-tert-Butoxycarbonyl-2-methyl-1-[(4-nitrophenyl)aminothiocarbonyl]piperazine]
- inhibition at 10 µM [1]: > 90%
- CC50 at 48 h ([2]; 48 h): 26.3 ± 1.59 µM

Structure (SMILES): COc1ccc(NC(=O)N2CCN(C(=O)c3cc4ccccc4o3)CC2C)cc1 (centres unmarked) [Compound 26, 4-(Benzofuran-2-carbonyl)-1-[(4-methoxyphenyl)aminocarbonyl]-2-methylpiperazine]
- inhibition at 10 µM [1]: 33.6 ± 14.7%
- melting point: 170 to 172 °C

Structure (SMILES): CC1CN(C(=O)C(C)(C)C)CCN1C(=O)c1ccc([N+](=O)[O-])cc1 (centres unmarked) [Compound 15, 2-Methyl-1-(4-nitrobenzoyl)-4-pivaloylpiperazine]
- inhibition at 10 µM [1]: 23.1 ± 3.71%
- melting point: 143 to 145 °C

Structure (SMILES): CC(C)(C)C(=O)N1CCN(C(=O)Nc2ccc([N+](=O)[O-])cc2)C(c2ccccc2)C1 (centres unmarked) [Compound 56, 1-[(4-Nitrophenyl)aminocarbonyl]-2-phenyl-4-pivaloylpiperazine]
- inhibition at 10 µM [1]: 43.8 ± 13.2%
- CC50 at 48 h ([2]; 48 h): 102 ± 8.38 µM
